Laboratory results published in patent US10071077B2, “Use of enoximone in the treatment of atopic immune-related disorders, in pharmaceutical composition as well as in pharmaceutical preparation” (BREAKTHROUGH MEDICAL RESEARCH B.V., priority 2014, dated 2018).

Key:
[1] = test system: HDM driven allergic airway inflammation; assay: House dust mite (HDM) allergic airway inflammation model, treatment strategy 1 (allergy induction); assay type: in vivo, C57bl/6 mice
Description: (§1) To induce airway inflammation, mice were anaesthetized with isofluorane and treated intratracheally (i.t.) with 1-10 μg house dust mite (HDM; Greer Laboratories) allergen extract in 80 μL phosphate buffered saline (PBS) on day 0 or using PBS only. Ten days later, anesthetized mice were challenged with 1-10 μg HDM in 50 μL PBS intranasally (i.n.) for 5 consecutive days. Mice were sacrificed 24 hr after last challenge and broncho alveolar lavage was performed by flushing the lungs 3 times with 1 ml PBS containing Ethylenediaminetetraacetic acid (EDTA, Sigma-Aldrich).
Different treatment modalities were testes i.e. route and dose. Here we tested the oral versus intratracheal route (FIG. 1) and PBS versus enoximone in a HDM driven allergy model. Enoximone was precipitated from Perfan®. The precipitant was admitted with HDM solution and used as a suspension for intratracheal treatment doses 25 μg and 250 μg or it was used as a suspension admitted in PBS for oral treatment doses 250 μg or 2.5 mg. Mice underwent enoximone treatment only during challenge. Sensitization was performed with 1 μg HDM and challenge with 2.5-5 μg HDM. Twenty-four hours after the last challenge measurements were performed.
Optimal dose of 25 μg enoximone versus diluent (FIG. 5) was admitted with 5 μg HDM solution and used for intratracheal treatment or diluent (10% ethanol+40% glycerol+50% MQ) admitted with 5 μg HDM solution. Controls were treated with enoximone 25 μg admitted with PBS or diluent admitted with PBS. Mice underwent enoximone treatment only during challenge.
(A) Experimental HDM asthma design showing intratracheal sensitization (s) of 1 μg HDM or PBS as control and five intra-nasal challenges (c) with 2.5-5 μg HDM. (B) Quantification of flow cytometric analyses of the indicated populations of eosinophils in bronchoalveolar lavage (BAL) of PBS treated mice (black bars) and enoximone treated mice (white and greyscale bars). Results are expressed as means±SEM. (C) Quantification of flow cytometric analyses of ILC2 numbers in BAL. Results are expressed as means±SEM. Results represent data of one out of 2 experiments with 3-8 animals per group. Statistical evaluations were performed only between different treatments of groups. *p<0.05, **p<0.01).
(§2) (A) Experimental HDM asthma design showing intratracheal sensitization (s) of 1 μg HDM or PBS as control and intra nasal challenge (c) with 5 μg HDM. (B) Quantification of flow cytometric analyses of eosinophils in BAL of PBS treated mice (black bars) and enoximone treated mice (light grey bars). Results are expressed as means±SEM. (C) Quantification of flow cytometric analyses of neutrophils and (D) ILC2s in BAL. Results are expressed as means±SEM. n=4-8 animals per group. Statistical evaluations were performed only between different treatments of groups (*p<0.05 or **p<0.01).

[2] = metabolised to a less active sulfoxide, excreted via the kidneys; cited from earlier work
[3] = test system: Human basophils stimulated with anti IgE; assay: Basophil degranulation assay; assay type: cell-based; conditions: anti IgE stimulation
Description: PBMCs including basophils were treated with diluent or several doses of enoximone at 37° C. for half an hour. Next the cells were washed and incubated with anti IgE antibodies 5 µg/ml for 20 minutes at 37° C. for 20 minutes washed again at 4° C. and consequently stained for flowcytometric with CD123-BV650, CD203c-PE, CD107a-FITC, HLA-DR-PerCPCy5.5 and FcεRI-APC at 4° C. for 30 minutes. Cells were acquire with a LSRII and analyzed with Flowjo X. Basophils were identified as FcεRI+, CD123+ and HLA-DR− cells. Degranulated and/or activated basophils stained positive for CD203c and CD107a. 100% degranulated basophils were set as the % of degranulated basophils treated with diluent and stimulated with 5 µg/ml anti IgE. Proportion of inhibition was calculated as % of degranulated basophils divided by the maximal % of diluent treated degranulated basophils.
FIG. 4 Human PBMCs including basophils were treated with diluent or several doses of enoximone and cells were activated by incubation with anti IgE antibodies. Data plotted show the mean proportion of inhibition was calculated as % degranulated basophils (CD123^+FceRI^+HLA-DR^− CD107a^+CD203c^+ cells) pretreated with enoximone divided by % of diluent treated degranulated basophils (n=3).

[4] = test system: established HDM allergic airway inflammation; assay: Established HDM allergy model, treatment strategy 2; assay type: in vivo, C57bl/6 mice; conditions: 25 μg enoximone admixed with 5 μg HDM
Description: as §1
C57bl/6 mice were sensitized with 10 μg HDM on day 0 and challenged with 5 μg HDM for 5 days on day 10-14. Then mice were treated with 5 μg HDM admixed with 25 μg enoximone or diluent for 5 days on days 15-19. 24 hr after last challenge measurements were performed.
Next, we attempted to determine whether enoximone is potent enough to suppress allergic inflammation when asthma is already fully established. Animals were challenged with an additional session of 5 challenges with HDM mimicking the situation in asthma patients. Asthma mice and PBS controls were then challenged again on five successive days by instilling a droplet of 50 μl PBS (PBS PBS dil), or HDM (5 μg) in 50 μl PBS (HDM HDM dil) or HDM (5 μg) in 50 μl PBS admixed with enoximone (25 μg) (HDM HDM enox)(FIG. 7A).
as §2, with “[…]” for “1 μg”, “HDM followed by challenge and treatment (ct).” for “HDM.”, “ILC2s, (D) CD3” for “neutrophils”, “(E) macrophages” for “(D) ILC2s”, “groups.” for “groups”

[5] = test system: Human PBMCs stimulated with tetanus toxoid (CD4 T-cells); assay type: cell-based
[6] = oral or intratracheal enoximone

Compound: CSc1ccc(C(=O)c2[nH]c(=O)[nH]c2C)cc1 [enoximone, 1,3-dihydro-4-methyl-5-[4-(methylthio)benzoyl]-2H-imidazol-2-on]
- neutrophil numbers in BAL ([1]; 25 μg enoximone intratracheally, FIG. 6C, same pattern as eosinophils): the same dynamic is observed
- ILC2 cell numbers in BAL ([1]; 25 μg enoximone intratracheally, FIG. 6D, same pattern as eosinophils): the same dynamic is observed
- numbers of BAL eosinophils, HDM/diluent treated mice compared to enoximone treated mice ([1]; 25 μg enoximone solution admitted to 5 μg HDM, intratracheally, FIG. 6B): significantly higher
- allergic airway inflammation in control mice ([1]; PBS/enoximone (25 μg) control mice, no HDM): no signs of allergic airway inflammation
- eosinophilic airway inflammation in control mice ([1]; PBS/enoximone control mice, no HDM): no eosinophilic airway inflammation
- eosinophil numbers in BAL, HDM/PBS treated mice compared to enoximone treated mice ([1]; intratracheally (25 and 250 μg), treatment during challenge, FIG. 5B): significantly higher
- DCs, PBS treated allergy mice compared to enoximone treated mice [1, 6]: significantly higher in the PBS treated allergy mice
- Neutrophils, PBS treated allergy mice compared to enoximone treated mice [1, 6]: significantly higher in the PBS treated allergy mice
- T-cells, PBS treated allergy mice compared to enoximone treated mice [1, 6]: significantly higher in the PBS treated allergy mice
- ILC2 numbers in BAL ([1]; oral or intratracheal enoximone, FIG. 5C): reduced
- half life [2]: approximately 4 hours
- inhibition at 20 µM ([3]; Homo sapiens, 20 μM enoximone, FIG. 4, read-out: inhibition of basophil activation/degranulation (CD107a and CD203c positivity)): > 50%
- inhibition at 1000 µM ([3]; Homo sapiens, 1000 μM enoximone, FIG. 4, read-out: inhibition of basophil activation/degranulation (CD107a and CD203c positivity)): > 90%
- basophil activation (CD107a and CD203c positivity) ([3]; enoximone 20-1000 μM): reduced basophil activation
- numbers of ILC2s in BAL ([4]; days 15-19, FIG. 7C): significant reduction
- numbers of T-cells in BAL ([4]; days 15-19, FIG. 7D): significant reduction
- numbers of macrophages in BAL ([4]; days 15-19, FIG. 7E): significant reduction
- eosinophil numbers in BAL ([4]; days 15-19, started after the first 5 HDM challenges, FIG. 7B): strong significant reductions
- proliferation of CD4 positive T-cells (proportion of divided CD4 T-cells) [5]: significantly reduced
